We go through four compounds from publication PMC8154419, “Druggable Hot Spots in the Schistosomiasis Cathepsin B1 Target Identified by Functional and Binding Mode Analysis of Potent Vinyl Sulfone Inhibitors” (ACS Infectious Diseases, 2020).

Data set [1] addresses T1, SmCB1 (Schistosoma mansoni, UniProt Q8MNY2, T185A/T300A). The data set can be described thus: SmCB1 kinetic inhibition assay (IC50) with fluorogenic substrate Cbz–Phe–Arg–AMC. To be noted: recombinant SmCB1, Cbz–Phe–Arg–AMC, pH 5.5; mean ± SE, triplicate; n.i.: no significant inhibition at 100 μM. The format is biochemical. The source says:
Thirty-four peptidomimetic vinyl sulfone analogs (including vinyl sulfonamides and vinyl sulfonate esters) were explored as potential inhibitors of SmCB1 to infer the structural requirements of the inhibitor-binding subsites in the enzyme active site cleft. The compound scaffold is defined by positions P3 through P1′, and the substitutions were selected to provide a high diversity at P2 and P1′ (Table 1). These two positions were recently reported to display large differences in the subsite interaction energy in response to their structural modifications.[10] The compounds were screened in vitro against recombinant SmCB1, and their IC50 values were determined using a kinetic inhibition assay with the fluorogenic substrate Cbz–Phe–Arg–AMC.
(§1) Inhibition measurements were performed in triplicates in 96-well microplates (100 μL assay volume) at 37 °C. […] The kinetics of product release was continuously monitored in an Infinite M1000 microplate reader (Tecan) at excitation and emission wavelengths of 360 and 465 nm, respectively. The IC50 values were determined by nonlinear regression using GraFit software. To determine the inhibition constant k2nd, the enzyme (40 pM SmCB1 or 60 pM HuCB) was added to a mixture of the fluorogenic substrate Cbz–Phe–Arg–AMC (20 μM for SmCB1 and 33 μM for HuCB) and an inhibitor (0–1 μM) in the assay buffer under assay conditions as above. The hydrolysis of substrate was monitored for 30 min in a microplate reader as described above. An observed rate constant, kobs, was calculated at each inhibitor concentration by fitting the progress curve to the equation P = vi/kobs(1 – e^–kobst), where P is the product formation, vi is the initial velocity, and t is the reaction time. For both enzymes, kobs varied linearly with the inhibitor concentration showing that the dependence of kobs on the inhibitor concentration is nonsaturating. […] The second order rate constant, k2nd, was determined by fitting to the linear equation kobs = (k2nd[I])/(1 + [S]/KM), where [S] is the substrate concentration, [I] is the inhibitor concentration, and KM is the Michaelis–Menten constant. KM values determined for SmCB1 and HuCB were 25 and 38 μM, respectively.

Data set [2] addresses T1, SmCB1. The data set can be described thus: biochemical. The format is biochemical. Particulars: pH 5.5, read-out: second order rate constant k2nd SmCB1. The method, then: (§2) (A) Sensitivity of SmCB1 and its human ortholog cathepsin B (HuCB) to inhibitors. The second order rate constants were measured in a kinetic activity assay with the fluorogenic peptide substrate Cbz–Phe–Arg–AMC at pH 5.5. […] Resulting phenotypes observed at three time points were graded by the severity score ranging from 0 to 4, with 4 being the most severe (see Figure S2A,B).
as §1, with “above.” for “above. An observed rate constant, kobs, was calculated at each inhibitor concentration by fitting the progress curve to the equation P = vi/kobs(1 – e^–kobst), where P is the product formation, vi is the initial velocity, and t is the reaction time. For both enzymes, kobs varied linearly with the inhibitor concentration showing that the dependence of kobs on the inhibitor concentration is nonsaturating.”, “constant.” for “constant. KM values determined for SmCB1 and HuCB were 25 and 38 μM, respectively.”

Data set [3] relates to SmCB1. The data set can be described thus: biochemical. The format is biochemical, Schistosoma mansoni. To be noted: k2nd for SmCB1 to k2nd for human cathepsin B. The method, then:
as §2
as §1, with “above.” for “above. An observed rate constant, kobs, was calculated at each inhibitor concentration by fitting the progress curve to the equation P = vi/kobs(1 – e^–kobst), where P is the product formation, vi is the initial velocity, and t is the reaction time. For both enzymes, kobs varied linearly with the inhibitor concentration showing that the dependence of kobs on the inhibitor concentration is nonsaturating.”, “constant.” for “constant. KM values determined for SmCB1 and HuCB were 25 and 38 μM, respectively.”

Another data set addresses T2, human cathepsin B (HuCB) (Homo sapiens, UniProt P07858).
T2 construct: purchased Calbiochem
The data set can be described thus: Second order rate constant (k2nd) of inhibition, human cathepsin B. In kind it is biochemical. Particulars: for second order rate constant k2nd HuCB: Cbz–Phe–Arg–AMC, pH 5.5, mean of triplicate; for kinact/KI: pH 5.5, read-out: second order rate constant k2nd HuCB. The protocol:
as §2
as §1, with “above.” for “above. An observed rate constant, kobs, was calculated at each inhibitor concentration by fitting the progress curve to the equation P = vi/kobs(1 – e^–kobst), where P is the product formation, vi is the initial velocity, and t is the reaction time. For both enzymes, kobs varied linearly with the inhibitor concentration showing that the dependence of kobs on the inhibitor concentration is nonsaturating.”, “constant.” for “constant. KM values determined for SmCB1 and HuCB were 25 and 38 μM, respectively.”

Data set [4] deals with S. mansoni newly transformed schistosomula (NTS). The data set can be described thus: Parasite assay and phenotype scoring of newly transformed schistosomula. The format is cell-based, Schistosoma mansoni. To be noted: score 0 to 4, 4 most severe. The method, then: The NTS were exposed to 1 and 10 μM inhibitors, and the resulting phenotypes were graded 0 through 4 from the least to the most severe (Figure 4B).[25],[26] […] The investigated inhibitors were also tested for their cytotoxicity against four human cell lines over 72 h.
Newly transformed schistosomula (NTS) of S. mansoni were prepared by mechanically transforming infective larvae (cercariae) as described previously.[67] NTS (200–300 parasites) were incubated in 200 μL of Basch Medium 169[68] containing 5% heat-inactivated fetal bovine serum, 100 U/mL penicillin, and 100 μg/mL streptomycin at 5% CO2 and 37 °C.[67],[69] […] We use single word or phrase “descriptors”[35] to record changes in movement, shape, and translucence (Figure S2).
Figure S2. Antischistosomal activity, cytotoxicity, and plasma stability of selected vinyl sulfone inhibitors. A. Induction of phenotypic alterations by the inhibitors was determined with newly transformed schistosomula (NTS) of S. mansoni. The inhibitors were tested at 1 and 10 µM concentrations for 24, 48 and 72 h, and the resulting phenotypes are shown as descriptor s .2 B. Example […]
captured using a Zeiss Axiovert 40 C inverted microscope (10x objective) and a Zeiss AxioCam MRc digital camera controlled by AxioVision 40 (v. 4.8.1.0) software. Scale bar = 0.2 mm. C. […]

Data set [5] in a line: In vitro plasma stability. In kind it is in vitro ADME. Particulars: 5 μM inhibitor, pooled human plasma, 30 min, 37°C. The method, then:
Finally, we evaluated the metabolic stability of the inhibitors in human plasma in vitro. The stability was expressed as the percentage of parental compound remaining in plasma after 30 min of incubation.
Figure S2. Antischistosomal activity, cytotoxicity, and plasma stability of selected vinyl sulfone inhibitors. A. Induction of phenotypic alterations by the inhibitors was determined with newly transformed schistosomula (NTS) of S. mansoni. The inhibitors were tested at 1 and 10 µM concentrations for 24, 48 and 72 h, and the resulting phenotypes are shown as descriptor s .2 B. Example of an inhibitor-induced phenotype in NTS of S. mansoni versus untreated controls. Images were captured using a Zeiss Axiovert 40 C inverted microscope (10x objective) and a Zeiss AxioCam MRc digital camera controlled by AxioVision 40 (v. 4.8.1.0) software. Scale bar = 0.2 mm. C. Cytotoxicity of the inhibitors towards four human cell lines expressed as % viability vs. untreated cells. Cells were treated with the indicated concentration of the compounds for 72 h and assayed by means of the XTT test (as described previously3). Standard deviation values were within 10% of the mean of tetraplicates. D. In vitro plasma stability was determined for 5 µM inhibitors incubated with pooled human plasma (Biowest) for 30 min at 37°C. The samples were deproteinized by acetonitrile a nd quantified by LC-MS (Exion LC AD/QTrap 6500+, AB Sciex). Data are expressed as a percentage of the remaining parent compound after 30 min incubation; standard deviations of the means ar e gi ve n for duplicate measurements.
(1 picture or pasted object on this page, not shown here)

The target in data set [6] is T1, SmCB1. Set-up: method as in PMID 21832058. To be noted: reference compounds; SmCB1, Cbz–Phe–Arg–AMC, pH 5.5; read-out: Inhibition IC50; cited from earlier work.

“And” between values parts separate entries of the source, which are not always exact repeats. Identical values can stand only once. Like-named read-outs stand apart in the source and are kept apart here.

A word on the IC50: it is the concentration at which inhibition is half-maximal.

T1 sequence (Q8MNY2 87-340 T185A/T300A): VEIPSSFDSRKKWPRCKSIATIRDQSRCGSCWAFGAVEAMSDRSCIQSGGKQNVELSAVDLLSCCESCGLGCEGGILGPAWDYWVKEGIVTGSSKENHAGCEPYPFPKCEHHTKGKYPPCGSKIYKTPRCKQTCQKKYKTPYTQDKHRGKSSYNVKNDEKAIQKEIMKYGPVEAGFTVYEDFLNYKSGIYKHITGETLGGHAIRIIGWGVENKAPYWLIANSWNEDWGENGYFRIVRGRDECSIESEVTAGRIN

In the case of `CN1CCN(C(=O)N[C@@H](Cc2ccccc2)C(=O)N[C@H](/C=C/S(=O)(=O)NOCc2ccccc2)CCc2ccccc2)CC1` [WRR-286], at SmCB1 [1], the 50% inhibitory concentration (IC50) was ~0.6 nM and 0.61 nM. Further, the kinact/KI on SmCB1 [2] was 200000 M⁻¹ s⁻¹; at human cathepsin B (HuCB), 33600 M⁻¹ s⁻¹. Also, in the data set with SmCB1 [3], the selectivity ratio entry is “about 6.0”. Moreover, the “second order rate constant k2nd HuCB” value at human cathepsin B (HuCB) is 33 618 M^–1 s^–1. The severity score in data set [4] (1 μM, 24 hours) was found to be 0; in data set [4] (1 μM, 48 hours) it was 0; in data set [4] (1 μM, 72 hours) it was 4; in data set [4] (10 μM, 24 hours), 0; in data set [4] (10 μM, 48 hours), 4; in data set [4] (10 μM, 72 hours), 4. Also, the “percentage of remaining parent compound in plasma” value in data set [5] stood at 107%.
For the compound `CCOC(=O)C1CCN(C(=O)N[C@@H](Cc2ccc(O)cc2)C(=O)N[C@H](/C=C/S(=O)(=O)c2ccccn2)CCc2ccccc2)CC1` [WRR-391], at SmCB1 [1], the IC50 was ~0.2 nM and 0.24 nM. Moreover, the kinact/KI came out at 208000 M⁻¹ s⁻¹ on SmCB1 [2] and 153000 M⁻¹ s⁻¹ at human cathepsin B (HuCB). The selectivity ratio in the data set with SmCB1 [3] was roughly 1.4. Also, the “second order rate constant k2nd HuCB” value at human cathepsin B (HuCB) was 152 806 M^–1 s^–1. For the same compound, the severity score in data set [4] (1 μM, 24 hours) came out at 0; in data set [4] (1 μM, 48 hours), 0; in data set [4] (1 μM, 72 hours), 0; in data set [4] (10 μM, 24 hours) it was 0; in data set [4] (10 μM, 48 hours) it was 0; in data set [4] (10 μM, 72 hours), 4. Also, the “percentage of remaining parent compound in plasma” value in data set [5] was determined as 54%.
Turning to `CC(C)C[C@H](NC(=O)N1CCOCC1)C(=O)N[C@H](/C=C/S(=O)(=O)c1ccccc1)CCc1ccccc1` [K11017, morpholino urea-leucyl-homophenylalanyl-vinylsulfone-phenyl], the 50% inhibitory concentration (IC50) at SmCB1 [6] is 1.71 ± 0.13 nM.
For the compound `CN1CCN(C(=O)N[C@@H](Cc2ccccc2)C(=O)N[C@H](/C=C/S(=O)(=O)c2ccccc2)CCc2ccccc2)CC1` [K11777, N-methylpiperazine-phenylalanyl-homophenylalanyl-vinylsulfone-phenyl, reference compound], the severity score is 0 in data set [4] (1 μM, 24 hours); 0 in data set [4] (1 μM, 48 hours); 3 in data set [4] (1 μM, 72 hours); 0 in data set [4] (10 μM, 24 hours); 1 in data set [4] (10 μM, 48 hours); 3 in data set [4] (10 μM, 72 hours). Further, the “percentage of remaining parent compound in plasma” value in data set [5] stood at 88%. On SmCB1 [6], the 50% inhibitory concentration (IC50) is 2.09 ± 0.08 nM.
